The target in this test is Plasma kallikrein (Homo sapiens, UniProt P03952). In words: Inhibition of human plasma kallikrein using Z-Phe-Arg-AMC substrate after 30 mins by spectrophotometric assay.

Our source for the IC50 values is ChEMBL document CHEMBL1240344, “Phage-encoded combinatorial chemical libraries based on bicyclic peptides” (Nat Chem Biol, 2009).

SMILES strings stand for the structures. Starred links: 1 amine or outer side, 2 acyl side, 3 side chain; linkers in the order of their positions; H or OH if unused. Positions of bridges follow the written chain, without caps; N, C: chain ends. Residues, ends and D or L forms follow the SMILES beside them. TBMB = c1c(C[*:1])cc(C[*:3])cc1C[*:2] A value given as a limit tells only on which side of the number the result lay.

Chain of Plasma kallikrein (P03952 20-390 limits assumed): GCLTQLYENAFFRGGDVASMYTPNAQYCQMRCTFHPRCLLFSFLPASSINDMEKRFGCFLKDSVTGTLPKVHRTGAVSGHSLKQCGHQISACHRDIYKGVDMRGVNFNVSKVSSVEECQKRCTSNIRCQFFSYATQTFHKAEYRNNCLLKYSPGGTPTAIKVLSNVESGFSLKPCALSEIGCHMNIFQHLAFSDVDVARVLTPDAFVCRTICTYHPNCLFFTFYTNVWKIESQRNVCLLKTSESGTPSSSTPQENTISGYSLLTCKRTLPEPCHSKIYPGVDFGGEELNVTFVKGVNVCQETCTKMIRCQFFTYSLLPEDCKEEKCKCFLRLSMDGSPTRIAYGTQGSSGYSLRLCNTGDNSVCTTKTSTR
Chain of Plasma kallikrein (P03952 391-638 limits assumed): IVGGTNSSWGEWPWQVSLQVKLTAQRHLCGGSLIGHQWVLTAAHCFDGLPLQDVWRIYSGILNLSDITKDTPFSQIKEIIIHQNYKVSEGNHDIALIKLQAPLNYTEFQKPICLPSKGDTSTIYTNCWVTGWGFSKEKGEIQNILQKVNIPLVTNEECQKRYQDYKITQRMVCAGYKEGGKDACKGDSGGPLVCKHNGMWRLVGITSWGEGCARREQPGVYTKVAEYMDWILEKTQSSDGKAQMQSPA

By IC50 is commonly meant the midpoint of a concentration-inhibition curve. Lower therefore signals inhibition by little substance. On to `CC[C@H](C)[C@@H]1NC(=O)[C@H](CCC(=O)O)NC(=O)[C@H]([C@@H](C)CC)NC(=O)[C@@H]2CCCN2C(=O)[C@@H]2CSCc3cc(cc(c3)CSC[C@@H](C(=O)NCC(N)=O)NC(=O)[C@@H]3CCCN3C(=O)[C@H](Cc3ccccc3)NC1=O)CSC[C@H](NC(=O)[C@H](C)N)C(=O)N[C@@H](CO)C(=O)N[C@@H]([C@H](C)O)C(=O)N[C@@H](CCC(=O)O)C(=O)N[C@@H](CCCNC(=N)N)C(=O)N[C@@H](CCCNC(=N)N)C(=O)N[C@@H](Cc1ccc(O)cc1)C(=O)N2`, for which the IC50 came out at 33 nM. For `CC(C)[C@H](NC(=O)[C@H](CCCN=C(N)N)NC(=O)[C@H](CS)NC(=O)[C@H](CCCN=C(N)N)NC(=O)CNC(=O)[C@H](CCC(=O)O)NC(=O)CNC(=O)[C@@H](NC(=O)CNC(=O)[C@H](CS)NC(=O)[C@H](C)N)[C@@H](C)O)C(=O)N[C@@H](CC(N)=O)C(=O)N[C@@H](Cc1c[nH]c2ccccc12)C(=O)N[C@H](C(=O)N1CCC[C@H]1C(=O)N[C@@H](CS)C(=O)NCC(N)=O)[C@@H](C)O`, the IC50 was greater than 10000 nM. The result for `CC(C)[C@@H]1NC(=O)[C@H](CCCNC(=N)N)NC(=O)[C@@H]2CSCc3cc(cc(c3)CSC[C@@H](C(=O)NCC(N)=O)NC(=O)[C@@H]3CCCN3C(=O)[C@H]([C@H](C)O)NC(=O)[C@H](Cc3c[nH]c4ccccc34)NC(=O)[C@H](CC(N)=O)NC1=O)CSC[C@H](NC(=O)[C@H](C)N)C(=O)NCC(=O)N[C@@H]([C@H](C)O)C(=O)NCC(=O)N[C@@H](CCC(=O)O)C(=O)NCC(=O)N[C@@H](CCCNC(=N)N)C(=O)N2` reads 39.1 nM; that for `CSCC[C@H](NC(=O)[C@H](CC(C)C)NC(=O)[C@H](CC(=O)O)NC(=O)[C@H](CCC(=O)O)NC(=O)[C@H](Cc1ccc(O)cc1)NC(=O)[C@H](CS)NC(=O)[C@H](C)NC(=O)[C@@H](NC(=O)[C@H](CCCN=C(N)N)NC(=O)[C@H](Cc1c[nH]c2ccccc12)NC(=O)[C@@H]1CCCN1C(=O)[C@H](C)NC(=O)[C@H](CS)NC(=O)[C@H](C)N)[C@@H](C)O)C(=O)N[C@@H](Cc1c[nH]c2ccccc12)C(=O)N[C@@H](CS)C(=O)NCC(N)=O` (H-ACAPWRTACYEDLMWCG-NH2), 5710 nM; that for `CSCC[C@@H]1NC(=O)[C@H](CO)NC(=O)[C@H](Cc2c[nH]c3ccccc23)NC(=O)[C@@H]2CCCN2C(=O)[C@@H]2CSCc3cc(cc(c3)CSC[C@H](NC(=O)[C@H](C)N)C(=O)N[C@@H](CC(=O)O)C(=O)N[C@@H](CO)C(=O)N[C@@H](CCCNC(=N)N)C(=O)N[C@@H](Cc3ccccc3)C(=O)N[C@@H](CCCNC(=N)N)C(=O)N[C@@H](CC(N)=O)C(=O)N2)CSC[C@@H](C(=O)NCC(N)=O)NC(=O)CNC(=O)[C@H](CO)NC1=O` (H-ACDSRFRNCPWSMSGCG-NH2; linker 2-9-16 via TBMB), 1500 nM. As for `CC[C@H](C)[C@@H]1NC(=O)[C@H](CC(N)=O)NC(=O)[C@H](CC(N)=O)NC(=O)[C@H](C(C)C)NC(=O)[C@H](CCCNC(=N)N)NC(=O)[C@@H]2CSCc3cc(cc(c3)CSC[C@@H](C(=O)NCC(N)=O)NC(=O)[C@H](CO)NC1=O)CSC[C@H](NC(=O)[C@H](C)N)C(=O)NCC(=O)NCC(=O)N[C@@H](CC(N)=O)C(=O)N[C@@H](CO)C(=O)N[C@@H](CC(=O)O)C(=O)N[C@@H](CCCNC(=N)N)C(=O)N2` (H-ACGGNSDRCRVNNISCG-NH2; linker 2-9-16 via TBMB), the midpoint of inhibition, the IC50, lay at 2000 nM. The IC50 values of the last two compounds are within 1.5-fold of each other. The result for `CC(C)C[C@@H]1NC(=O)[C@H](C)NC(=O)[C@H](CCC(=O)O)NC(=O)[C@H](CC(=O)O)NC(=O)[C@H](C(C)C)NC(=O)[C@@H]2CCCN2C(=O)[C@@H]2CSCc3cc(cc(c3)CSC[C@@H](C(=O)NCC(N)=O)NC1=O)CSC[C@H](NC(=O)[C@H](C)N)C(=O)N[C@@H](CO)C(=O)N[C@@H](CC(=O)O)C(=O)N[C@@H](CCCNC(=N)N)C(=O)N[C@@H](Cc1ccccc1)C(=O)N[C@@H](CCCNC(=N)N)C(=O)N[C@@H](CC(N)=O)C(=O)N2` (H-ACSDRFRNCPVDEALCG-NH2; linker 2-9-16 via TBMB) reads 20 nM; that for `CC(C)C[C@@H]1NC(=O)[C@H](Cc2c[nH]c3ccccc23)NC(=O)[C@H](CCC(=O)O)NC(=O)[C@H](CC(=O)O)NC(=O)[C@H](C(C)C)NC(=O)[C@@H]2CCCN2C(=O)[C@@H]2CSCc3cc(cc(c3)CSC[C@@H](C(=O)NCC(N)=O)NC1=O)CSC[C@H](NC(=O)[C@H](C)N)C(=O)N[C@@H](CO)C(=O)N[C@@H](CC(=O)O)C(=O)N[C@@H](CCCNC(=N)N)C(=O)N[C@@H](Cc1ccccc1)C(=O)N[C@@H](CCCNC(=N)N)C(=O)N[C@@H](CC(N)=O)C(=O)N2` (H-ACSDRFRNCPVDEWLCG-NH2; linker 2-9-16 via TBMB), 30 nM; that for `CC(C)[C@@H]1NC(=O)[C@@H]2CCCN2C(=O)[C@@H]2CSCc3cc(cc(c3)CSC[C@@H](C(=O)NCC(N)=O)NC(=O)[C@H](C)NC(=O)[C@H](CO)NC(=O)[C@H](CCC(=O)O)NC(=O)[C@H](CO)NC1=O)CSC[C@H](NC(=O)[C@H](C)N)C(=O)N[C@@H](CO)C(=O)N[C@@H](CC(=O)O)C(=O)N[C@@H](CCCNC(=N)N)C(=O)N[C@@H](Cc1ccccc1)C(=O)N[C@@H](CCCNC(=N)N)C(=O)N[C@@H](CC(N)=O)C(=O)N2` (H-ACSDRFRNCPVSESACG-NH2; linker 2-9-16 via TBMB), 50 nM. Compound `CC(C)C[C@@H]1NC(=O)[C@H]([C@@H](C)O)NC(=O)[C@H](Cc2ccc(O)cc2)NC(=O)[C@@H]2CCCN2C(=O)[C@@H]2CSCc3cc(cc(c3)CSC[C@@H](C(=O)NCC(N)=O)NC(=O)[C@H](CC(=O)O)NC(=O)[C@H](Cc3cnc[nH]3)NC1=O)CSC[C@H](NC(=O)[C@H](C)N)C(=O)N[C@@H](CO)C(=O)N[C@@H](CC(=O)O)C(=O)N[C@@H](CCCNC(=N)N)C(=O)N[C@@H](Cc1ccccc1)C(=O)N[C@@H](CCCNC(=N)N)C(=O)N[C@@H](CC(N)=O)C(=O)N2` (H-ACSDRFRNCPYTLHDCG-NH2; linker 2-9-16 via TBMB) registered an IC50 of 30 nM. The result for `CC(C)[C@@H]1NC(=O)[C@H](CCCNC(=N)N)NC(=O)[C@@H]2CSCc3cc(cc(c3)CSC[C@@H](C(=O)NCC(N)=O)NC(=O)[C@H](CCCCN)NC(=O)CNC(=O)[C@H](Cc3ccccc3)NC(=O)[C@H](CC(N)=O)NC1=O)CSC[C@H](NC(=O)[C@H](C)N)C(=O)N[C@@H](Cc1c[nH]c3ccccc13)C(=O)N[C@@H](CCC(N)=O)C(=O)N[C@@H](C(C)C)C(=O)N[C@@H](CCC(N)=O)C(=O)N[C@@H](C(C)C)C(=O)N[C@@H](CC(N)=O)C(=O)N2` (H-ACWQVQVNCRVNFGKCG-NH2; linker 2-9-16 via TBMB) reads 800 nM. For the compound `CC(C)C[C@@H]1NC(=O)[C@@H]2CCCN2C(=O)[C@@H]2CSCc3cc(cc(c3)CSC[C@@H](C(=O)NCC(N)=O)NC(=O)[C@H](C(C)O)NC(=O)CNC(=O)[C@H](CO)NC(=O)[C@H](Cc3c[nH]c4ccccc34)NC1=O)CSC[C@H](NC(=O)[C@H](C)N)C(=O)N[C@@H](CO)C(=O)N[C@@H](CC(=O)O)C(=O)N[C@@H](CCCNC(=N)N)C(=O)N[C@@H](Cc1ccccc1)C(=O)N[C@@H](CCCNC(=N)N)C(=O)N[C@@H](CC(N)=O)C(=O)N2` (single isomer, unassigned), half-maximal inhibition (IC50) was put at 28.6 nM. Take `CC(C)[C@@H]1NC(=O)[C@@H](NC(=O)[C@H](C)N)CSCc2cc3cc(c2)CSC[C@@H](C(=O)NCC(N)=O)NC(=O)[C@H](C(C)O)NC(=O)[C@H](C(C)C)NC(=O)[C@H](Cc2c[nH]c4ccccc24)NC(=O)[C@H](CC(N)=O)NC(=O)[C@H](C(C)C)NC(=O)[C@H](CCCNC(=N)N)NC(=O)[C@H](CSC3)NC(=O)[C@H](Cc2ccc(O)cc2)NC(=O)[C@H](CC(N)=O)NC(=O)[C@H](Cc2cnc[nH]2)NC1=O` (single isomer, unassigned): the IC50 is 1800 nM. Against the preceding compound, the IC50 is about 63-fold higher.
